In US12275731B2, “Azaindole inhibitors of wild-type and mutant forms of LRRK2” (DANA-FARBER CANCER INSTITUTE, INC., priority 2018, dated 2025):

Assays:
Test in all cases: KinomeScan profiling
Type in all cases: binding
[1] = target: T1, KIT(D816V) (Homo sapiens, UniProt P10721, D816V); settings: read-out: % control
T1 construct: purchased KinomeScan®
Outline: (§1)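 Luminescence (RLU) was converted to percent of control, with DMSO set as 100% and a reference compound as 0%. Test compounds were run at 1 μM against 468 kinases. Kinases showing below 35% of control were scored as bound.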

[2] = target: T2, KIT(L576P) (Homo sapiens, UniProt P10721, L576P); settings: read-out: % control
T2 construct: purchased KinomeScan®
Outline: as §1

[3] = target: T3, MAP3K15 (Homo sapiens, UniProt Q6ZN16); settings: MAP3K15, 1 μM; read-out: % control
T3 sequence (Q6ZN16 1-1313): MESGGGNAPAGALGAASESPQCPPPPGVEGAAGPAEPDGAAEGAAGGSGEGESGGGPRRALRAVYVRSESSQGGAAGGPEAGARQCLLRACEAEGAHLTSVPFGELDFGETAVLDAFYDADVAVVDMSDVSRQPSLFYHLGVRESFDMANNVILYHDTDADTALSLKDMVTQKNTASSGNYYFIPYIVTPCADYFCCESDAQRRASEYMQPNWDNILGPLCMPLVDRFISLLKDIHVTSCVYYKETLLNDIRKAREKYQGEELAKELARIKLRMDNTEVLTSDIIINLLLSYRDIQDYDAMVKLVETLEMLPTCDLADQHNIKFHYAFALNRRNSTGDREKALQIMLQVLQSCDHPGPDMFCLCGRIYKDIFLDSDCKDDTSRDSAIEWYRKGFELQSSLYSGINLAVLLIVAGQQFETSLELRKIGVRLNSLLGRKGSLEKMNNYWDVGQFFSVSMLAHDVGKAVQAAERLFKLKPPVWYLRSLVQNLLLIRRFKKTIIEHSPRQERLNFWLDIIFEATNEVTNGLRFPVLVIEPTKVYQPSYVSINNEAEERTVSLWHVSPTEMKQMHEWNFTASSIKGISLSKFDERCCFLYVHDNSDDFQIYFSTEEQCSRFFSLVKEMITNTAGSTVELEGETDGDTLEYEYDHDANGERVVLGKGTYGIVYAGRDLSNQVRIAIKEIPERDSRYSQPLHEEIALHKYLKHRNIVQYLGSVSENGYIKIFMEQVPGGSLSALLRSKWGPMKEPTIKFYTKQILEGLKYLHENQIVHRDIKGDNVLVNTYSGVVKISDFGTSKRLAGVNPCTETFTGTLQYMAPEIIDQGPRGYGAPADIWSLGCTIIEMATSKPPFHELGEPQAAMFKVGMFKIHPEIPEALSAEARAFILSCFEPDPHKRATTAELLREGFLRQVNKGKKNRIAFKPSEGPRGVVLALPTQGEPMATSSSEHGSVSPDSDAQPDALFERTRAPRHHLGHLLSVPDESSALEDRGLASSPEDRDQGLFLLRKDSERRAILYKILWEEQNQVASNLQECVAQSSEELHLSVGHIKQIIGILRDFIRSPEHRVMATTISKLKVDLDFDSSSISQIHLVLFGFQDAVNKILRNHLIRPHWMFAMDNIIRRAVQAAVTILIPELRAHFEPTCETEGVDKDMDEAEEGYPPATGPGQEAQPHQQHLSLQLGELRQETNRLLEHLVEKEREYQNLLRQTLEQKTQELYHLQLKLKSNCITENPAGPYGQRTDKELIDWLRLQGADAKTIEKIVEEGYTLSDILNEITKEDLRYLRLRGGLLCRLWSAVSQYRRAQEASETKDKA
Outline: as §1

[4] = target: MRCKB (Homo sapiens, UniProt Q9Y5S2); settings: read-out: % control
Outline: as §1

[5] = target: T4, PIK3CG (Homo sapiens, UniProt P48736); settings: read-out: % control
T4 construct: purchased KinomeScan® (panel service)
Outline: as §1

[6] = target: T5, RSK4(Kin.Dom.1-N-terminal) (Homo sapiens, UniProt Q9UK32); settings: read-out: % control
T5 construct: ribosomal S6 Kinase 4 (RSK4)(Kin.Dom.1-N-terminal)
Outline: as §1

[7] = target: T6, ULK1 (Homo sapiens, UniProt O75385); settings: ULK1, 1 μM; read-out: % control
T6 sequence (O75385 1-1050): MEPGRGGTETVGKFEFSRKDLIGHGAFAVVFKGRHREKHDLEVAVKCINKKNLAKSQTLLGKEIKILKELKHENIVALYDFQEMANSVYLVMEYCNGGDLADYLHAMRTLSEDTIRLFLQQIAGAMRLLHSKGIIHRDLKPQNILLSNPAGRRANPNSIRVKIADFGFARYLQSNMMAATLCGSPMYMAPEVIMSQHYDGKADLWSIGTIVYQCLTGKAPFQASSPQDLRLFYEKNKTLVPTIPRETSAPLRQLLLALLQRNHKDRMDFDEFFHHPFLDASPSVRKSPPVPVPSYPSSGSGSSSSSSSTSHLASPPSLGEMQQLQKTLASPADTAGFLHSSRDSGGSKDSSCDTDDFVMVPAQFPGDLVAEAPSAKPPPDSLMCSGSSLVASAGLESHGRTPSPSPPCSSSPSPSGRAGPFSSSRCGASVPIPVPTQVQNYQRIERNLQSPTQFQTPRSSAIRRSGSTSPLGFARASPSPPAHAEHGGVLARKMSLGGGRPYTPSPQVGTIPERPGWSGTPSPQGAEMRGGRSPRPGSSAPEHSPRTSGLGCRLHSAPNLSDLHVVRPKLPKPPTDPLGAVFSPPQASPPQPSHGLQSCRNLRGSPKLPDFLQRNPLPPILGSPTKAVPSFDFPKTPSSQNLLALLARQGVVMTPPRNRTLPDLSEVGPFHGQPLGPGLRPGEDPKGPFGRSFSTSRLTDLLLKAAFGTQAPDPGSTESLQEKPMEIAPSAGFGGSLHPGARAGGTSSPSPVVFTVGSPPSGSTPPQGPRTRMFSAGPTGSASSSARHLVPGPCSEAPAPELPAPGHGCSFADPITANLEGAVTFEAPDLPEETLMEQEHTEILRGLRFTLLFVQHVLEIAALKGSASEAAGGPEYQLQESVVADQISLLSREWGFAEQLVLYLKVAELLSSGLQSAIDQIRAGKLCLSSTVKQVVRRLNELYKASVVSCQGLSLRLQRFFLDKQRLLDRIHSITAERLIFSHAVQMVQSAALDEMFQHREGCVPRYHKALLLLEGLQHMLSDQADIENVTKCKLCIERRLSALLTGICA
Outline: as §1

T1 sequence (P10721 26-976 D816V): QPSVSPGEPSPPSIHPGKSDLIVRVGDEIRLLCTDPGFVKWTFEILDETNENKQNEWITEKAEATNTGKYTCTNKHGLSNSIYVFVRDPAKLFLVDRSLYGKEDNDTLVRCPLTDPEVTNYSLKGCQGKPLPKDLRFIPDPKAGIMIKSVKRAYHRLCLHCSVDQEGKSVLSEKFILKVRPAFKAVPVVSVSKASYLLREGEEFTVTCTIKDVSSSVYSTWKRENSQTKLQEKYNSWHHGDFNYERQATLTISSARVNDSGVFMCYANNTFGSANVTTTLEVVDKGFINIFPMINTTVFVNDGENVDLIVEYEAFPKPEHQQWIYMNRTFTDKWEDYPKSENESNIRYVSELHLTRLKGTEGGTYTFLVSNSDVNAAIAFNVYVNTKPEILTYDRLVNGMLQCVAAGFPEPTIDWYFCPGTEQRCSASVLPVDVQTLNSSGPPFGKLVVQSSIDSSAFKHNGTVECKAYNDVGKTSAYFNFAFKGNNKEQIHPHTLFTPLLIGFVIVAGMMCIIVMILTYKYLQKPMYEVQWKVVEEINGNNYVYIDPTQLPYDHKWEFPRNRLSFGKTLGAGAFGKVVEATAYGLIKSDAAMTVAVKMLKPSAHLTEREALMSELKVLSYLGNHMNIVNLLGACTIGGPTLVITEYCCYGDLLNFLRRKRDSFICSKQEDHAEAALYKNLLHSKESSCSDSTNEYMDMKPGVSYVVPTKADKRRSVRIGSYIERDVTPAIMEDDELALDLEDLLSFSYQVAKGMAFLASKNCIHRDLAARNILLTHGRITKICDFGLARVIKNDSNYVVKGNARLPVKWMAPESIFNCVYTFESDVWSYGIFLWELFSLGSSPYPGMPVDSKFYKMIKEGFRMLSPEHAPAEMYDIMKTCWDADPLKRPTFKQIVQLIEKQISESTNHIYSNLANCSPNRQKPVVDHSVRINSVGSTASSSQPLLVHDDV
T5 sequence (Q9UK32 73-330 limits assumed): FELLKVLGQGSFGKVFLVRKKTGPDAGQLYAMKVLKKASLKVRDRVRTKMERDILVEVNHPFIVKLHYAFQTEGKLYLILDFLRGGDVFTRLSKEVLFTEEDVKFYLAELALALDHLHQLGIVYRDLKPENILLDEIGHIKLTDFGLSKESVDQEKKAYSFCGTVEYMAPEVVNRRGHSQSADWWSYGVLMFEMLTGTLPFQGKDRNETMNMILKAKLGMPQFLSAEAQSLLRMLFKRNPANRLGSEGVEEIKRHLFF
T2 sequence (P10721 26-976 L576P): as the sequence (P10721 26-976 D816V) above, with L551P, V791D counted along it
Sequence of MRCKB (Q9Y5S2 whole entry): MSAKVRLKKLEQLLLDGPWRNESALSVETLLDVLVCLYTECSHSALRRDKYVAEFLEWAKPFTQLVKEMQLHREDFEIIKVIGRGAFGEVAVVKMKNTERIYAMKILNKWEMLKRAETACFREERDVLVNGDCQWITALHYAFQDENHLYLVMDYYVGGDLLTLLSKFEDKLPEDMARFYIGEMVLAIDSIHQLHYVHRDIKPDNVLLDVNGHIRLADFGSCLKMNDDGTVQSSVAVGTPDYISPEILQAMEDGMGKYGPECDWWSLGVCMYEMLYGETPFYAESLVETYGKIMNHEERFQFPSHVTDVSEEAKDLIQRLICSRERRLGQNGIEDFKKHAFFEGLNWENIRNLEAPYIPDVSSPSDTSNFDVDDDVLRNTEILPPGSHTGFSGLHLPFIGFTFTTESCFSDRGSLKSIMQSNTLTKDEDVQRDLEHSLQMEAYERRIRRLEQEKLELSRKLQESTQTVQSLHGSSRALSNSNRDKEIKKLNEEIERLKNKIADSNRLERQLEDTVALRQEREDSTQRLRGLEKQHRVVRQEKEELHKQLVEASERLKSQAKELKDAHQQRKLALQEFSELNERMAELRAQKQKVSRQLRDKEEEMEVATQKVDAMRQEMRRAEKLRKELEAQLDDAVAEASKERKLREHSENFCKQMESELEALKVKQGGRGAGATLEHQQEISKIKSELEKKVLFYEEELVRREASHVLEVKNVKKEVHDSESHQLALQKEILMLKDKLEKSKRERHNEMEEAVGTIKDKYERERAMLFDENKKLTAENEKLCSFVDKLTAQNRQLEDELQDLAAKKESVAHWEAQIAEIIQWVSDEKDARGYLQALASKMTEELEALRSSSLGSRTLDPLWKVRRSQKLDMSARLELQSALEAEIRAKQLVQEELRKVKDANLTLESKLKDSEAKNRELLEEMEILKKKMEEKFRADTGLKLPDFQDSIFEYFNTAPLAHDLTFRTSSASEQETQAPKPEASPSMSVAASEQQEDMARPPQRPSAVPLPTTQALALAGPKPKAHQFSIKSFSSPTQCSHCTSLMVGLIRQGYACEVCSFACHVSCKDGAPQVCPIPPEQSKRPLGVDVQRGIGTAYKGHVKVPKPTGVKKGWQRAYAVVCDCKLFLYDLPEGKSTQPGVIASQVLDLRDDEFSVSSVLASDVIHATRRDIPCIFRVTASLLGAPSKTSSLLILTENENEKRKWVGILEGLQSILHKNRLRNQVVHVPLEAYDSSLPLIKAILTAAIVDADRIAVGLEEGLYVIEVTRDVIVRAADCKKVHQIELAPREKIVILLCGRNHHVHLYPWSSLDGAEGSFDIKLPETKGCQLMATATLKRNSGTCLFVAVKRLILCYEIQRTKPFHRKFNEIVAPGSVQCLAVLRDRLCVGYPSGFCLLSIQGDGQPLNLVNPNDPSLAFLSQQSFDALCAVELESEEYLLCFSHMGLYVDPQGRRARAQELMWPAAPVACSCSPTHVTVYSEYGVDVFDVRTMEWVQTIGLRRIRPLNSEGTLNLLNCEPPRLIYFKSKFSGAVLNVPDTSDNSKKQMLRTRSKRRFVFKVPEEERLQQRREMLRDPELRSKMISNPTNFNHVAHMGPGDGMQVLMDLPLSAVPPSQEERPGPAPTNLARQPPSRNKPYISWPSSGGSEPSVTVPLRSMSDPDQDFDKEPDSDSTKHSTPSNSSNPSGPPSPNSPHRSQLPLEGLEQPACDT
T4 sequence (P48736 whole entry): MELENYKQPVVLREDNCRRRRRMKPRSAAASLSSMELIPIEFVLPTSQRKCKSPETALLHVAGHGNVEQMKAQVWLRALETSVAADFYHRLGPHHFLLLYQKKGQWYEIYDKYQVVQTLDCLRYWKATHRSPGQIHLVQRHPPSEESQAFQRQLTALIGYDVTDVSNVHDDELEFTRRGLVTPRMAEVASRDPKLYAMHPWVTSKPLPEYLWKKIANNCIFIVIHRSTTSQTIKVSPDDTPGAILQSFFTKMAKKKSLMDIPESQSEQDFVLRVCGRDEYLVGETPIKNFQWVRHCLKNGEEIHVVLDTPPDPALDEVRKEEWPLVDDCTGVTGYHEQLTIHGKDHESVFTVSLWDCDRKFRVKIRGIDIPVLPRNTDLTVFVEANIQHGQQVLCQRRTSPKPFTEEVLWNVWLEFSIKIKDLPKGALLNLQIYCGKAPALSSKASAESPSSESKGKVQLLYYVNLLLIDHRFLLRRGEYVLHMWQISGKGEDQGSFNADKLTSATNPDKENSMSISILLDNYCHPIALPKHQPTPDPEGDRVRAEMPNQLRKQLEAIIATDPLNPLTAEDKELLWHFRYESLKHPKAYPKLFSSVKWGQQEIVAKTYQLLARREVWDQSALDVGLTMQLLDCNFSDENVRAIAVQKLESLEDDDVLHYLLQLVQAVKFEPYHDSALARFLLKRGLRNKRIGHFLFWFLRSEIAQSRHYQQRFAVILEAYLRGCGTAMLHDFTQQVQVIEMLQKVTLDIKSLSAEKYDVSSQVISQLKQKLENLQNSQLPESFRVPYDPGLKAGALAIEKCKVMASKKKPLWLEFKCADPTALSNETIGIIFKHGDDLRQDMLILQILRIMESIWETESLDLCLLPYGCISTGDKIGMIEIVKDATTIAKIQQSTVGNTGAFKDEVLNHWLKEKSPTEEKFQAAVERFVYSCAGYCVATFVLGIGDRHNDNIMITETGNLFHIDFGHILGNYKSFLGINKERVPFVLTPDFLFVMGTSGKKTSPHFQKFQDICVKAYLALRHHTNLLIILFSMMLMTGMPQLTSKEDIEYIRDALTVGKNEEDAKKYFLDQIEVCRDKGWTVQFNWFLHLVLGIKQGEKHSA

Structure (SMILES) | remaining binding at 1 µM [1] [%] | remaining binding at 1 µM [2] [%] | remaining binding at 1 µM [3] [%] | remaining binding at 1 µM [4] [%] | remaining binding at 1 µM [5] [%] | remaining binding at 1 µM [6] [%] | remaining binding at 1 µM [7] [%]
CNc1c(-c2cnn([C@H]3CCN(C(C)=O)C[C@@H]3F)c2)cnc2[nH]cc(Cl)c12 [Compound 77, 1-((3S,4S)-4-(4-(3-chloro-4-(methylamino)-1H-pyrrolo[2,3-b]pyridin-5-yl)-1H-pyrazol-1-yl)-3-fluoropiperidin-1-yl)ethan-1-one] | 46 | 10 | 1.4 | 86 | 99 | 32 | 3.1
O=C(c1ccc(-c2cnc3[nH]cc(Cl)c3c2NC2CCCC2)cc1)N1CCC(N2CCOCC2)CC1 [Compound 101, (4-(3-chloro-4-(cyclopentylamino)-1H-pyrrolo[2,3-b]pyridin-5-yl)phenyl)(4-morpholinopiperidin-1-yl)methanone] | 95 | 46 | 100 | 82 | 95 | 100 | 73
CNc1c(-c2ccc(C(=O)N3CCC(N4CCOCC4)CC3)cc2)cnc2[nH]cc(Cl)c12 [Compound 96, (4-(3-chloro-4-(methylamino)-1H-pyrrolo[2,3-b]pyridin-5-yl)phenyl)(4-morpholinopiperidin-1-yl)methanone] | 86 | 19 | 1.8 | 93 | 100 | 77 | 3.8
